Among the data in paper PMC4696493 (RSC advances, 2014) are MIC and Kd values, retold here.

Test [1] concerns Bacillus subtilis PY79.
Test [2] relates to E. coli K12.
Test [3] concerns the target G-actin (Oryctolagus cuniculus, UniProt P68135). Nature of the test: Surface plasmon resonance, actin binding. On the set-up: species or system rabbit. A general note: Surface plasmon resonance follows binding to a sensor surface in real time, without labels.

Values after ≈ are worked out from the molar mass of the structure shown. Like-named read-outs stand apart in the source and are kept apart here. No end group written: not given here.

Take `CC[C@H](C)[C@H](NC(=O)[C@H](CCCCN)NC(=O)[C@H](CCC(=O)O)NC(=O)[C@H](CCCCN)NC(=O)[C@H](CO)NC(=O)[C@H](CCCCN)NC(=O)[C@H](CCCNC(=N)N)NC(=O)[C@H](Cc1ccccc1)NC(=O)[C@H](Cc1ccccc1)NC(=O)[C@H](CC(=O)O)NC(=O)CNC(=O)[C@H](CC(C)C)NC(=O)[C@@H](N)CC(C)C)C(=O)NCC(=O)N[C@@H](CCCCN)C(=O)N[C@@H](CCC(=O)O)C(=O)N[C@@H](Cc1ccccc1)C(=O)N[C@@H](CCCCN)C(=O)N[C@@H](CCCNC(=N)N)C(=O)N[C@H](C(=O)N[C@H](C(=O)N[C@@H](CCC(N)=O)C(=O)N[C@@H](CCCNC(=N)N)C(=O)N[C@H](C(=O)N[C@@H](CCCCN)C(=O)N[C@@H](CC(=O)O)C(=O)N[C@@H](Cc1ccccc1)C(=O)N[C@@H](CC(C)C)C(=O)N[C@@H](CCCNC(=N)N)C(=O)N[C@@H](CC(N)=O)C(=O)N[C@@H](CC(C)C)C(=O)N[C@H](C(=O)N1CCC[C@H]1C(=O)N[C@@H](CCCNC(=N)N)C(=O)N[C@H](C(=O)N[C@@H](CCC(=O)O)C(=O)N[C@@H](CO)C(=O)O)[C@@H](C)O)C(C)C)[C@@H](C)CC)C(C)C)[C@@H](C)CC` [LL-37, reference compound]: the MIC (usually the lowest concentration found to suppress growth) came to 1.1 µM (≈ 4.94 µg/mL) in test [1] (measured with B. subtilis PY79, LB, 37 °C); 10 µM (≈ 44.9 µg/mL) in test [2] (E. coli K12, 100 mM NaCl, tryptic soy broth (TSB)); 10 µM in test [2] (E. coli K12, no salt, tryptic soy broth (TSB)).
In test [1] (PY79), FKRIVQRIKDFLR-NH2 [FK-13] had an MIC of 3.3 µM. Further, the affinity in test [3], expressed as Kd, was 18.6 µM.
In the case of KRIVQRIKDF-NH2 [KR-10], in test [2] (K12), the MIC is >160 µM. Further, in test [3], the affinity, expressed as Kd, was 28.4 µM.
Turning to KRIVQRIKDFLR-NH2 [KR-12], the MIC in test [1] (PY79) was determined as 6.6 µM. In addition, the Kd – broadly, the free concentration of one partner at which half of the binding sites on the other are occupied at equilibrium, for simple one-to-one binding – in test [3] was 11.8 µM.
